Tests used:
[1] = Inhibition of PDE9
[2] = biological target: High affinity cGMP-specific 3',5'-cyclic phosphodiesterase 9A (Homo sapiens, UniProt O76083); test: Inhibition of human PDE9A expressed in Escherichia coli BL21 by liquid scintillation counting
Sequence of High affinity cGMP-specific 3',5'-cyclic phosphodiesterase 9A (O76083 whole entry): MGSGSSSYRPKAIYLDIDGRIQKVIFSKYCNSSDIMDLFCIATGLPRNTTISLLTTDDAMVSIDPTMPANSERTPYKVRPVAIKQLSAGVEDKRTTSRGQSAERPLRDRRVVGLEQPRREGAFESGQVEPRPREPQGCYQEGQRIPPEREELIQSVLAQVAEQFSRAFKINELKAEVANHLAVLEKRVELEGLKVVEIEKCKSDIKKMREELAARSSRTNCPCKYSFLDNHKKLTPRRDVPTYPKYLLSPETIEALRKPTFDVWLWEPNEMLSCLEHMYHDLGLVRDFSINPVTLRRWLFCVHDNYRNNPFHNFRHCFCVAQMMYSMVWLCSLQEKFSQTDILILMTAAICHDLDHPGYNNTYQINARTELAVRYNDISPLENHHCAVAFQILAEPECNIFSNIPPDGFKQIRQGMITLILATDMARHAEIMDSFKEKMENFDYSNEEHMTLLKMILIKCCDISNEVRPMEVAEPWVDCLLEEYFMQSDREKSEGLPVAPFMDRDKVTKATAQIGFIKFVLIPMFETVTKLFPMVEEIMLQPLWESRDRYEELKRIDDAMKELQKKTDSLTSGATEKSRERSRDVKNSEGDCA

SMILES | IC50 [1] [nM] | IC50 [2] [µM]
C[C@H](Cc1nc2c(cnn2-c2ccccc2Cl)c(=O)[nH]1)C(F)(F)F | 55 | 
CC(C)Cn1c(=O)n(C)c(=O)c2[nH]cnc21 [ISOBUTYLMETHYLXANTHINE] |  | > 200
